Values of other authors, collected in paper PMC8583936, “Machine Learning Assisted Approach for Finding Novel High Activity Agonists of Human Ectopic Olfactory Receptors” (International Journal of Molecular Sciences, 2021).

Target: T1, OR2W1 (Homo sapiens, UniProt Q9Y3N9)
T1 sequence (Q9Y3N9 1-320): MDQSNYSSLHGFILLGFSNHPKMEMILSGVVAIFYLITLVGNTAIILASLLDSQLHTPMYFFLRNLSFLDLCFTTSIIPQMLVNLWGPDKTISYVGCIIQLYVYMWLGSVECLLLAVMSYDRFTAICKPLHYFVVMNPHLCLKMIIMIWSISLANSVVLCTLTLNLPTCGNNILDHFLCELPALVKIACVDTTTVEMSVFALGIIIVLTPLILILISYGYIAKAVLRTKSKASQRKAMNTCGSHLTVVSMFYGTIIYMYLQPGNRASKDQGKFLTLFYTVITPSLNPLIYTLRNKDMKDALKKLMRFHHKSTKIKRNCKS
Details: Table S2; ref Supplement references [2]-[12] as printed after each odorant name; cited from earlier work

Row | Molecule | Class (agonist / non-agonist / antagonist / conflicting info.) for OR2W1
1 | CCCCC/C=C\CCC=O [Z-4-decenal] | Non-agonist
2 | CC(=O)/C=C/C1=C(C)CCCC1(C)C [Β-ionone] | Non-agonist
3 | (+)-Fenchone | Non-agonist
4 | (+)-alpha-Pinene | Non-agonist
5 | (+)-beta-Pinene | Non-agonist
6 | (-)-Fenchone | Non-agonist
7 | (-)-alpha-Terpineol | Non-agonist
8 | (S)-(-)-limonene | Agonist
9 | Caramel furanone | Non-agonist
10 | Coffee difuran | Agonist
11 | Ethyl 3-methylthiopropionate | Non-agonist
12 | Laevo-arabinose | Non-agonist

Same assay, conditions: cited from earlier work

Row | Molecule | Class (agonist / non-agonist / antagonist / conflicting info.) for OR2W1
13 | CCC1CCC(=O)O1 (stereo not drawn) [Γ-caprolactone] | Non-agonist
14 | (S)-(-)-citronellol | Agonist
15 | Isoeugenol | Non-agonist

Target: T2, OR1A1 (Homo sapiens, UniProt Q9P1Q5)
T2 sequence (Q9P1Q5 1-309): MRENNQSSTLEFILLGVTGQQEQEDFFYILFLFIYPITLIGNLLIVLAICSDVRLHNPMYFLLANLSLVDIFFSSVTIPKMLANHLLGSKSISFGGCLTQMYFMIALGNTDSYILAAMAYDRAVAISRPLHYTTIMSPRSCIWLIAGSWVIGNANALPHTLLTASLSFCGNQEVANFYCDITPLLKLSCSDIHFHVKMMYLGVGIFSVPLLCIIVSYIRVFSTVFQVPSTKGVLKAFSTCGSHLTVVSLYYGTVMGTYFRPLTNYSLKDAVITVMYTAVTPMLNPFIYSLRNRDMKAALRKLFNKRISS
Details: Table S1; ref Supplement references [1]-[9] as printed after each odorant name; cited from earlier work

Row | Molecule | Class (agonist / non-agonist / conflicting info.) for OR1A1
16 | CCCCC/C=C\CCC=O [Z-4-decenal] | Conflicting info.
17 | CC(=O)/C=C/C1=C(C)CCCC1(C)C [Β-ionone] | Non-agonist
18 | (+)-Fenchone | Non-agonist
19 | (+)-alpha-Pinene | Non-agonist
20 | (+)-beta-Pinene | Non-agonist
21 | (-)-Fenchone | Non-agonist
22 | (-)-alpha-Terpineol | Non-agonist
23 | (S)-(-)-limonene | agonists
24 | Caramel furanone | Non-agonist
25 | Coffee difuran | Conflicting info.
26 | Ethyl 3-methylthiopropionate | Non-agonist
27 | Laevo-arabinose | Conflicting info.

Same assay, conditions: cited from earlier work

Row | Molecule | Class (agonist / non-agonist / conflicting info.) for OR1A1
28 | CCC1CCC(=O)O1 (stereo not drawn) [Γ-caprolactone] | Non-agonist
29 | (S)-(-)-citronellol | Agonist
30 | Isoeugenol | Non-agonist
